Columns and labels:
CEACAM1 (THP-1-dMs) = target: T1, CEACAM1 (THP-1-dMs) (Homo sapiens, UniProt P13688); experiment: CETSA and DARTS, western blot; assay type: biochemical; details: THP-1-dM lysate; CETSA 100 μM rhamnose, 2 h, 37-67°C; DARTS with pronase 1:1000, TNC buffer pH 8.0
T1 construct: endogenous protein in lysate of PMA-differentiated THP-1 macrophages
T1 sequence (P13688 35-526): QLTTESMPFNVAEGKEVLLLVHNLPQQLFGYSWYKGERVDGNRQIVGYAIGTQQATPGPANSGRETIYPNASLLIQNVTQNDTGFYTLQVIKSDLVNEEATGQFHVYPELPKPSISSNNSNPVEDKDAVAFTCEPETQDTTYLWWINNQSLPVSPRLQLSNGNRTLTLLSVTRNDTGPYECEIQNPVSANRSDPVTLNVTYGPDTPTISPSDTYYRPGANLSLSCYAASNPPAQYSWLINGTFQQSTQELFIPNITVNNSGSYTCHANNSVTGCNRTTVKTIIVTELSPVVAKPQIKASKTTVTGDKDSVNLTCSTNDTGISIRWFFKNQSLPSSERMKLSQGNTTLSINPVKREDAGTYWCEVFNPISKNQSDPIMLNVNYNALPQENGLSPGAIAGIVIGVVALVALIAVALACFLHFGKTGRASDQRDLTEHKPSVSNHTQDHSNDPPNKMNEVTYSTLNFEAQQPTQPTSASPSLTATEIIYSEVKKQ

CEACAM1 (BMDMs) = target: T2, CEACAM1 (BMDMs) (Mus musculus, UniProt P31809); experiment: CETSA and DARTS, western blot; assay type: biochemical; details: BMDM lysate; CETSA 100 μM rhamnose, 2 h, 37-67°C; DARTS with pronase 1:1000, TNC buffer pH 8.0
T2 construct: endogenous protein in lysate of murine bone marrow-derived macrophages; band 150-250 kDa region discussed
T2 sequence (P31809 35-521): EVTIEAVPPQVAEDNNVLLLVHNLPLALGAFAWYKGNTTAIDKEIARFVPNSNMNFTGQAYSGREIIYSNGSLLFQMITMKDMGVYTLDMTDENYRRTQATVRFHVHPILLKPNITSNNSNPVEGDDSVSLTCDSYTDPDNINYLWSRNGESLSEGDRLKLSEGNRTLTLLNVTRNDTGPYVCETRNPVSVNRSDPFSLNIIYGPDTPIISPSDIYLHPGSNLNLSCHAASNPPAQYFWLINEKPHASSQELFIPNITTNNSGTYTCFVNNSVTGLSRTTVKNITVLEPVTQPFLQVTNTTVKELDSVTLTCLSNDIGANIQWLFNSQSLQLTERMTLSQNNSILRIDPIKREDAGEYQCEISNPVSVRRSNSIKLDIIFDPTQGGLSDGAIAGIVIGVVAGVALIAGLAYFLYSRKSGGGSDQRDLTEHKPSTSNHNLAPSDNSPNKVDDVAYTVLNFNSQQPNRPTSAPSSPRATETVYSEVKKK

C[C@@H]1OC(O)[C@H](O)[C@H](O)[C@H]1O (some centres unmarked) [rhamnose]
CETSA and DARTS, western blot (CEACAM1 (THP-1-dMs)): rhamnose treatment increased the resistance of the CEACAM1 protein to protease hydrolysis | CETSA and DARTS, western blot (CEACAM1 (BMDMs)): CETSA also demonstrated that rhamnose reduced the degradation rate of CEACAM1 in heat-denatured BMDMs

From PMC12747936, “Rhamnose alleviates the proinflammatory response during endotoxemia via the CEACAM1/LGALS9-p38 axis” (Acta Biochimica et Biophysica Sinica, 2025)
